The subject of experiment [1] is P. falciparum (3D7 strain). Nature of the experiment: In vitro antiplasmodial activity, P. falciparum blood-stage parasites, SYBR Green I. Type of experiment: cell-based, Plasmodium falciparum. Conditions: 3D7 strain, 72 h, SYBR Green I, read-out: IC50^Pf. The procedure:
The P. falciparum strains were cultivated in human blood cells (hRBC) O^+, while P. knowlesi was cultivated in rhesus red blood cells (rRBC) as described. P. falciparum complete RPMI (consisting of RPMI-1640, supplemented with 0.2% NaHCO3, 25 mM HEPES (pH 7.4), 11 mM D-glucose, 10 mg/L hypoxanthine, 25 mg/L gentamicin, and 0.5% (m/v) AlbuMAX II). The parasitemias of these cultures were maintained below 10% with 2.5% hematocrit. P. knowlesi complete RPMI (consisting of RPMI-1640 supplemented with 25 mM HEPES, […] hypoxanthine, 0.26% NaHCO3, 10 mg/L gentamicin, and 1% Albumax II). This culture was maintained with RBCs up to 5% hematocrit. The culture medium was changed daily, and all cultures were maintained under a 90% N2/5% CO2/5% O2 gas mixture at 37 °C. All compounds were purchased from Sigma-Aldrich (Cotia, Brazil).
The antiplasmodial activity of brussonol and derivatives was evaluated against P. falciparum blood parasites 3D7(chloroquine-sensitive). The parasites were synchronized through sterile 5% (m/v) D-sorbitol treatment over 10 min at 37 °C for the enrichment of ring stages. Centrifugation 600× g over 5 min was used to pellet the cultures. The parasitemia was determined by microscope analysis of thin blood smears stained with Giemsa 10% (v/v) after fixation with methanol. The initial parasitemia was calculated for 1000 red blood cells (RBCs), and cultures were diluted to 0.5% parasitemia and 2% hematocrit by the addition of the appropriate volumes of blood and medium. A total of 180 µL aliquots of parasites were distributed into 96-well plates followed by the addition of 20 µL of previously prepared aliquots of ten-fold concentrated compounds, the range of concentrations tested was 10–1.53 µM. Negative and positive control wells, which correspond to non-parasitized erythrocytes and parasite cultures in the absence of compounds, were set in parallel. The DMSO concentration was maintained below 0.05% (v/v) for all compounds except for brussonol, which was 0.5%. The plates were incubated for 72 h at 37 °C in a humidified incubator with a gas mixture of 90% N2, 5% O2, and 5% CO2. Each test was performed in duplicates, and the results were compared with the control cultures. Once completed incubation, the culture medium was removed, and the cells were resuspended in 100 µL PBS (116 mM NaCl, 10 mM NaH2PO4, 3 mM KH2PO4) and lysed with 100 µL lysis buffer (20 mM Tris base, 5 mM EDTA, 0.0008% (v/v) Triton X-100, 0.008% (m/v) saponin, pH 8.0) containing 0.002% (v/v) SYBR Green I. Plates were incubated for 30 min at room temperature, and a SpectraMAX Gemini EM plate reader (Molecular Devices Corp., Sunnyvale, CA) was used to determine the fluorescence corresponding to parasitic density (excitation at 485 nm, emission at 535 nm). The half-maximal inhibitory concentration (IC50^Pf) was determined by non-linear regression analysis of the resulting concentration–response curve using the software GraphPad Prism version 8.0.1 for Windows, GraphPad Software, San Diego, California USA, www.graphpad.com, accessed on 3 March 2022”.

A further experiment concerns HepG2 cells. Put plainly: Cytotoxic test on immortalized cells, MTT. Type of experiment: cell-based, human. The following applies: HepG2, 72 h. The procedure: The cytotoxic effects of brussonol and derivatives were evaluated against the human hepatocellular carcinoma cell line (HepG2). The cells were cultivated in an RPMI medium supplemented with 10% (v/v) fetal bovine serum and 25 µg/mL gentamicin. Conditions for the cultivation of these cells were 37 °C and 5% CO2, and every 2 days the supplemented medium was changed.
For experimental procedures, the cells were trypsinized and transferred to a 96-well plate at 30,000 cells per well (180 µL). The plate was incubated at 37 °C and 5% CO2 to allow cell adhesion. Next, 20 µL of serial dilutions of the compounds tested were added to the plate, with a range of concentrations tested from 400–6.25 µM. Cells without any compounds were used as a positive control for growing and the wells containing only medium were used as negative controls. The plate was incubated for 72 h at 37 °C and 5% CO2. After incubation, a microscope was used to determine the highest compound concentration to be used in the experiments (highest concentration without precipitation). A colorimetric assay was used to evaluate cytotoxicity. This assay is based on the metabolic cell activity in the presence of 3-(4,5-dimethylthiazol-2-yl)-2,5-diphenyltetrazolium bromide (MTT). Shortly after incubation, 20 µL of a solution of MTT at 5 mg/mL (solubilized in phosphate buffer) is added to each well. The plate is incubated for 3 to 4 h at 37 °C to allow MTT cleavage in living cells. Then, the supernatant is removed, and 100 µL of dimethylsulfoxide (DMSO) is added to solubilize the purple formazan crystals. The absorbance, which is proportional to the number of viable cells, was determined using a SpectraMAX Plus 384 plate reader (Molecular Devices Corp., Sunnyvale, CA) (λ = 570 nm). All compounds described here were purchased from Sigma-Aldrich (verificar local).
After the IC50 against the parasite and the human cell line is determined, it is possible to calculate the SI. It is calculated as the formula below:SI = IC50^HepG2/IC50^Pf.
For our reference, compounds with SI values higher than 10 are considered well tolerated by the cellular model used, and they are considered for further evaluation.

For another experiment, the system named is P. falciparum 3D7 strain. Put plainly: Chemical rescue assay with isopentenyl pyrophosphate (IPP). In kind it is cell-based, Plasmodium falciparum. The following applies: Plasmodium falciparum, 3D7 strain, 72 h. The source says:
To evaluate whether brussonol interfered with the biosynthesis of […] in malaria parasites, we conducted a chemical rescue assay. The assay identifies compounds that interfere with the metabolism of isoprenoids by “rescuing” their growth inhibition through the supplementation of isopentenyl pyrophosphate (IPP), a key precursor of isoprenoid biosynthesis. […] Thus, the chemical rescue assay compares the IC50 values of the tested compound in the presence and absence of IPP. We used fosmidomycin (FOS) as a positive control for growth inhibition rescuing upon supplementation of IPP (Figure 7b). In this assay, compounds that interfere in the metabolism of isoprenoids show a significant increment in the IC50 value in the presence of IPP (Figure 7b).
The chemical rescue assay was carried out as described by Yeh and DeRisi (2011). This assay consists in verifying the IC50 value of the tested compounds with and without the isopentenyl pyrophosphate (IPP), purchased from Isoprenoids, LC (Florida, USA). Briefly, 3D7 strain ring stages were cultured in 96-well plates, with 0.5% parasitemia and 2% hematocrit. Non-parasitized erythrocytes and parasitized erythrocytes without drugs were used as growth controls, and fosmidomycin (FOS) was used as a positive control for chemical rescue. Serial dilutions of brussonol and FOS were prepared in duplicates. In the same 96-well plate, brussonol and FOS had their antiplasmodial activity evaluated with and without supplementation of 200 µM IPP. Plates were incubated for 72 h and analyzed by the SYBR Green I assay.

In a further experiment the test system is hemozoin formation. Put plainly: Hemozoin formation inhibition assay. Type of experiment: biochemical. The following applies: hemin 25 µM, pH 4.8, 4 h, one experiment in triplicate. The procedure: 2. Hemozoin Formation Inhibition Assay
The hemozoin formation inhibition assay was performed as described previously.12 Briefly, serial 1:3 dilutions, in a 96‐well plate, wit h brussonol were made in a final volume of 20 μL in a concentration 10 times higher than the final concentration of the assay. Secondly, 90 μ L of freshly prepared hemin (at a final concentration of 25 μM) solution in 1M NaOAc/HOAc buffer pH 4.8 were added followed by addition of 90 μ L of 5.4 mg/L Tween 20 solution freshly prepared. The plates were let to stand for 4 hours at 37 °C followed by resuspension with multichannel pippete and read at 415 and 630 nm using a SpectraMAX Plus 384 plate reader (Molecular Devices Corp., Sunnyvale, CA).
Due to the absence of enough compound, this experiment wa s performed only once, but with internal triplicate. Chloroquine (CQ) and pyrimethamine (PYR) were used as positive and negative control of inhibition, respectively.
Inhibition (%) = 100 – 100 x [(Aco ntro l – Asample) / (Acontrol - Amin)] Acontrol is the difference of the absorbance at 415 and 630 nm of the negative control (Hemin +, Tween 20 ‐, Compound ‐); Amin is the difference of the absorbance at 415 and 630 nm of the positive control (Hemin +, Tween 20 +, Compound ‐ ); Asample is the difference of the absorbance at 415 and 630 nm of the sample. The hemozoin formation inhibition assay was performed to evaluate if brussonol act inhibiting hemozoin formation in P. falciparum. CQ, which is a well‐known inhibitor of hemozoin […]
Figure S1. Hemozoin formation inhibition assay. Different concentrations of CQ (black triangles), PYR (red squares) and brussonol (blue circles) were incubated with heme in triplicates. Th e absorbance was recorded at 415/630 nm to determine the hemozoin formation inhibition. […]

Where [2] appears, read: Plasmodium falciparum, 3D7, 72 h.

Like-named read-outs stand apart in the source and are kept apart here.

What is called IC50 is the concentration needed to halve the response being measured.

Take `COc1c2c(c(-c3ccccc3)c(C(C)C)c1OC)[C@@H]1C[C@H]3CCCC[C@@]3(C2)O1` (racemic) [Compound 15]: the IC50 was 5.89 ± 0.02 µM in experiment [1] (setting [2]) and greater than 50 µM with HepG2 cells (Homo sapiens).

`COc1ccc(OC)c2c1CC13CCCCC1CC2O3` (stereo not shown) [Compound 3]: the concentration for half-maximal inhibition (IC50) in experiment [1] (setting [2]) was greater than 10 µM.

Consider `Oc1ccc(O)c2c1C[C@@]13CCCC[C@@H]1C[C@@H]2O3` (racemic) [Compound 5], for which, in experiment [1] (setting [2]), the IC50 is greater than 10 µM.

Consider `COc1c(C(C)C)cc2c(c1OC)CC13CCCC(C)(C)C1CC2O3` (stereo not shown) [Compound 7], for which the IC50 in experiment [1] (setting [2]) was 5.2 ± 0.4 µM; in the experiment on HepG2 cells (Homo sapiens) it was greater than 192 µM.

As to `COc1c2c(c(Br)c(C(C)C)c1OC)[C@@H]1C[C@H]3C(C)(C)CCC[C@@]3(C2)O1` (racemic) [Compound 10], the concentration for half-maximal inhibition (IC50) in experiment [1] is 5.6 ± 0.1 µM; in experiment [1] (setting [2]), roughly 5 µM.

On to `COc1ccc2c(c1OC)CC13CCCCC1CC2O3` (stereo not shown) [Compound 2], for which the 50% inhibitory concentration (IC50) in experiment [1] (setting [2]) was greater than 10 µM.

In the case of `O=CN(O)CCCP(=O)(O)O` [fosmidomycin, reference compound], the IC50 is greater than 20 µM in the experiment on P. falciparum 3D7 strain (with 200 µM IPP, read-out: IC50 in the presence of IPP) and 1.2 ± 0.2 µM in the experiment on P. falciparum 3D7 strain (without IPP, read-out: IC50 in the absence of IPP).

For the compound `COc1c2c(c(Br)c(C(C)C)c1OC)C1CC3CCCCC3(C2)O1` (stereo not shown) [Compound 14], the half-maximal inhibitory concentration (IC50) in experiment [1] (setting [2]) is 5.65 ± 0.05 µM; with HepG2 cells (Homo sapiens), greater than 25 µM.

For the compound `Oc1ccc2c(c1O)CC13CCCCC1CC2O3` (stereo not shown) [Compound 4], the IC50 in experiment [1] (setting [2]) is greater than 10 µM.

Regarding `CCN(CC)CCCC(C)Nc1ccnc2cc(Cl)ccc12` (stereo not shown) [Chloroquine, reference compound], the half-inhibitory concentration (IC50) in the experiment on hemozoin formation worked out at 80 µM.

Take `COc1c(C(C)C)cc2c(c1OC)C[C@@]13CCCC[C@@H]1C[C@@H]2O3` (racemic) [Compound 12]: the IC50 in experiment [1] was 5.6 ± 0.8 µM; in experiment [1] (setting [2]), roughly 5 µM.

Take `O=C1C=CC(=O)C2=C1CC13CCCCC1CC2O3` (stereo not shown) [Compound 6]: in experiment [1] (setting [2]), the half-maximal inhibitory concentration (IC50) is greater than 10 µM.

For the compound `CC(C)c1cc2c(c(O)c1O)C[C@@]13CCCC[C@@H]1C[C@@H]2O3` (racemic) [Compound 13], the IC50 in experiment [1] (setting [2]) was greater than 10 µM.

For the compound `COc1c2c(c(-c3ccccc3)c(C(C)C)c1OC)[C@@H]1C[C@H]3C(C)(C)CCC[C@@]3(C2)O1` (racemic) [Compound 11], the 50% inhibitory concentration (IC50) in experiment [1] (setting [2]) is 5.8 ± 0.2 µM; in the experiment on HepG2 cells (Homo sapiens), greater than 12 µM.

Turning to `COc1c2c(c(OC)c(C(C)C)c1OC)[C@@H]1C[C@H]3C(C)(C)CCC[C@@]3(C2)O1` (racemic) [Compound 8], the figures for the IC50 (in experiment [1] (setting [2]); in the experiment with HepG2 cells; with HepG2 cells (Homo sapiens)) were roughly 5 µM, 170 ± 38 µM and greater than 170 µM, respectively.

For the compound `COc1ccc2c(c1OC)C[C@@]13CCCC(C)(C)[C@@H]1C[C@@H]2O3` (racemic) [Compound 9], the IC50 in experiment [1] (setting [2]) is greater than 10 µM.

The record behind these values is article PMC9321043, “Synthesis, Structure–Activity Relationships, and Parasitological Profiling of Brussonol Derivatives as New Plasmodium falciparum Inhibitors” (Pharmaceuticals, 2022).
